In ChEMBL document CHEMBL1127541, “3,4-Dihydro-3-amino-2H-1-benzopyran derivatives as 5-HT1A receptor ligands and potential anxiolytic agents. 1. Synthesis and structure--activity relationship studies” (J Med Chem, 1994):
pIC50: −log10 of the molar value.

Tests used:
[1] = target: 5-hydroxytryptamine receptor 1B (Rattus norvegicus, UniProt P28564); test: Binding affinity for 5-hydroxytryptamine 1B receptor in rat cortex, striatum and globus pallidus; format: tissue-based
D(2) dopamine receptor = D(2) dopamine receptor (Bos taurus, UniProt P20288); test: Binding affinity against D2 receptor in calf caudate nucleus
Sequence of D(2) dopamine receptor (P20288 whole entry): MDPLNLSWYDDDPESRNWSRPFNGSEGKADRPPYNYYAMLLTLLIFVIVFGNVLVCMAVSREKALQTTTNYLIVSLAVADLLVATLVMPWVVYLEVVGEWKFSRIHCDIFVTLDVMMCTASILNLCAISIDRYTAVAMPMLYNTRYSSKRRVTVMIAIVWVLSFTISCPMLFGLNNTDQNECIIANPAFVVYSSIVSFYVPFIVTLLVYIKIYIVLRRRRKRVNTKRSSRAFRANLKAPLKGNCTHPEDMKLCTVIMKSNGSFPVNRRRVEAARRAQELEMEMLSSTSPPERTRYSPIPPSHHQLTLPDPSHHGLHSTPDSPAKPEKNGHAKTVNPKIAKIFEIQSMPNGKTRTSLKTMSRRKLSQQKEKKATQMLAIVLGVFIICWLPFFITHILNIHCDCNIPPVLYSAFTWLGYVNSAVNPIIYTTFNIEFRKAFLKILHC

Mus musculus [2] = test: The in vivo compartmental activity was evaluated as minimum significant active dose measured by Drug discrimination test; format: functional
[3] = target: T1, Alpha-1A adrenergic receptor (Bos taurus, UniProt P18130); test: Binding affinity against alpha-1 adrenergic receptor in calf frontal cortex; format: tissue-based
T1 sequence (P18130 whole entry): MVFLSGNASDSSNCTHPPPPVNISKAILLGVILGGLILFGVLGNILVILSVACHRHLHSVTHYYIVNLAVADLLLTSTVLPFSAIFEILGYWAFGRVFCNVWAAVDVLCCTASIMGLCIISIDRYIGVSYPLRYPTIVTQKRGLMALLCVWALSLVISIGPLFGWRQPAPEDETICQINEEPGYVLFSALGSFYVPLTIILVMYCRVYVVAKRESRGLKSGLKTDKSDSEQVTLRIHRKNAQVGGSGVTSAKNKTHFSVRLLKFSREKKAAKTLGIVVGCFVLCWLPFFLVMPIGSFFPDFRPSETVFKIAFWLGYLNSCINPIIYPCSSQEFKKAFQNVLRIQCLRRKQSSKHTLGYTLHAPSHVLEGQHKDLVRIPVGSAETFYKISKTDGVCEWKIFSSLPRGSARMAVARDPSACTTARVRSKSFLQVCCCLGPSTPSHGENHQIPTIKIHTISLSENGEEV

[4] = target: T2, Alpha-2A adrenergic receptor (Bos taurus, UniProt Q28838); test: Binding affinity against alpha-2 adrenergic receptor in calf frontal cortex; format: tissue-based
T2 sequence (Q28838 whole entry): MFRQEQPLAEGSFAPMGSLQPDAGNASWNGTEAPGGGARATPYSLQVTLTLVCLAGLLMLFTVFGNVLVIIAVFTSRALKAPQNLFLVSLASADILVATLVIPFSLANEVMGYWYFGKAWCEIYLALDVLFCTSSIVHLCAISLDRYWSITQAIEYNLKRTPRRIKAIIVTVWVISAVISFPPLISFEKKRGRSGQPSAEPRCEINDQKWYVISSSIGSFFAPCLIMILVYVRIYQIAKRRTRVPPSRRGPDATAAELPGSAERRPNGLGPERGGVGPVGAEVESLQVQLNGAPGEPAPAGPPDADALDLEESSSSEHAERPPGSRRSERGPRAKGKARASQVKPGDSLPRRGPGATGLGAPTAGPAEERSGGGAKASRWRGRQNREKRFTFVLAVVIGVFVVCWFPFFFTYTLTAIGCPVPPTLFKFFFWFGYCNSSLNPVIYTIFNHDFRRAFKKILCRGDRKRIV

[5] = Inhibitory concentration of compound was tested as agonist activity against forskolin activated adenylate cyclase; format: functional
[6] = target: 5-hydroxytryptamine receptor 2A (Bos taurus, UniProt Q75Z89); test: Binding affinity towards 5-hydroxytryptamine 2 receptor in calf frontal cortex; format: tissue-based
Sequence of 5-hydroxytryptamine receptor 2A (Q75Z89 whole entry): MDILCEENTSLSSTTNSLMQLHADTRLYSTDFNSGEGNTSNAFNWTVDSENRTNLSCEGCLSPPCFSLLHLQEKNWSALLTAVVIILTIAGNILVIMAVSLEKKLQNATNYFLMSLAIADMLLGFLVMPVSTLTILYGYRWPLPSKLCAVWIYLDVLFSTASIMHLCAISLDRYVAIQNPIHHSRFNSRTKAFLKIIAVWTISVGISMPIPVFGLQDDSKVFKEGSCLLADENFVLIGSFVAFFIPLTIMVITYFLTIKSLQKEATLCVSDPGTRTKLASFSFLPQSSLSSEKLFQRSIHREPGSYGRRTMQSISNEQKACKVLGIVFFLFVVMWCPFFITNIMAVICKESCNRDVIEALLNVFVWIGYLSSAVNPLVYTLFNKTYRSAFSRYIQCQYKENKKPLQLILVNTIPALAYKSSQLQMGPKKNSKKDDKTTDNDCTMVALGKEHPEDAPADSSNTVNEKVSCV

Mus musculus [7] = test: The in vivo compartmental activity was evaluated as minimum significant active dose measured by Dark/light box test; format: functional
D(1A) dopamine receptor = D(1A) dopamine receptor (Bos taurus, UniProt Q95136); test: Binding affinity towards dopamine receptor D1 in calf striatum; format: tissue-based
Sequence of D(1A) dopamine receptor (Q95136 whole entry): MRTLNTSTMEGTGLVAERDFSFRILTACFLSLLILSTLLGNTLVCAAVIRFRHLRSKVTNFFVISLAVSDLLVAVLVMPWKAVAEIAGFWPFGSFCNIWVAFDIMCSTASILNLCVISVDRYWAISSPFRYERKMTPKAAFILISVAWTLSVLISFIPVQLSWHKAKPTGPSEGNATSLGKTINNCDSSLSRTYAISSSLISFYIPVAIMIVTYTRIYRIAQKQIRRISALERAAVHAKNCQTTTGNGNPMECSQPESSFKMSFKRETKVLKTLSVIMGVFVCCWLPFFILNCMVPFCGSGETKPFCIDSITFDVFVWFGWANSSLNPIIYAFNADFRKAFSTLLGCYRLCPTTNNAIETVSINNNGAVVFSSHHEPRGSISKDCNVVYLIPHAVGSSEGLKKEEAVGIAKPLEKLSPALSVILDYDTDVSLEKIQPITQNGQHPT

Mus musculus [8] = test: (§1) The in vivo compartmental activity was evaluated as minimum significant active dose measured by punishment test; format: functional
[9] = target: T3, 5-hydroxytryptamine receptor 1A (Rattus norvegicus, UniProt P19327); test: Binding affinity against 5-hydroxytryptamine 1A (5-HT1A) receptor in rat hippocampus membranes; format: cell membranes, Membrane
T3 sequence (P19327 whole entry): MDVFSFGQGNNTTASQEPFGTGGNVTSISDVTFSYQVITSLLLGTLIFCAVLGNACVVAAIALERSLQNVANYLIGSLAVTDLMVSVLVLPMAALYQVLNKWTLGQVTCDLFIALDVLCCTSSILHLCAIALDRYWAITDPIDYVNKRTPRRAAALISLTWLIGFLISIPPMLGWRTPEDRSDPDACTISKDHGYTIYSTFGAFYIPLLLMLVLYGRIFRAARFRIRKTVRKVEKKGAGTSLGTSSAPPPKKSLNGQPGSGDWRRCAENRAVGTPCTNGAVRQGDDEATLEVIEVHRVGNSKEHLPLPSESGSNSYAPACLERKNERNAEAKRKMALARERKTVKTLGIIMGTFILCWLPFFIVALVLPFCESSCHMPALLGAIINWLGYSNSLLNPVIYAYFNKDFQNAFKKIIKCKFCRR

Mus musculus [10] = test: The in vivo compartmental activity was evaluated as minimum significant active dose measured by lower lip retraction test; format: functional
Mus musculus [11] = test: The in vivo compartmental activity was evaluated as minimum significant active dose measured by Forepaw treading test; format: functional
Mus musculus [12] = organism: Mus musculus; test: Inhibitory concentration of compound was tested as agonist activity against DRN firing in the dorsal raphe nucleus; format: functional, organism-based
Mus musculus [13] = test: as §1; format: ADME, organism-based
[14] = Inhibitory concentration of compound was tested as agonist activity against DRN serotonergic neurons firing in the dorsal raphe nucleus; format: functional, tissue-based, Rattus norvegicus

Sequence of 5-hydroxytryptamine receptor 1B (P28564 whole entry): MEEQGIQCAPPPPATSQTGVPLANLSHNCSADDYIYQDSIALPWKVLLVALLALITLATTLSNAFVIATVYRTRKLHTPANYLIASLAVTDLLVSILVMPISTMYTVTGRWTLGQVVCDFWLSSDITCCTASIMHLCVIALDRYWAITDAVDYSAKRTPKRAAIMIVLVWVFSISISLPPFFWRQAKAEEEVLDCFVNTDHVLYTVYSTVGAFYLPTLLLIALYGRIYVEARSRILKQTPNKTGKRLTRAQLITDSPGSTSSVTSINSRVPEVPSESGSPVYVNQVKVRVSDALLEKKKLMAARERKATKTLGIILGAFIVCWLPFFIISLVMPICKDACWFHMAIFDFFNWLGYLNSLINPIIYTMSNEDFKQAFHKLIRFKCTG

Structure (SMILES) | pIC50 [1] | pIC50 (D(2) dopamine receptor) | pIC50 [3] | pIC50 [4] | pIC50 [5] | pIC50 [6] | pIC50 (D(1A) dopamine receptor) | pIC50 [9] | pIC50 (Mus musculus [12]) | DDT msad (Mus musculus [2]) [mg/kg] | DLBT (Mus musculus [7]) [mg/kg] | Punishment test msad (Mus musculus [8]) [mg/kg] | LLR msad (Mus musculus [10]) [mg/kg] | FPT msad (Mus musculus [11]) [mg/kg] | Punishment test msad (Mus musculus [13]) [mg/kg] | pIC50 [14]
CCCN(CCCCN1C(=O)CC2(CCCC2)CC1=O)C1COc2cccc(OC)c2C1.O=C(O)C(=O)O (single isomer, unassigned; (+)) | 5.00 | 5.52 | 4.40 | 7.70 | 7.99 | 5.52 | 4.40 | 9.52 | ~8.22 | 0.1 | 1 | 0.03 | 4 | 8 | – | –
CCCN(CCC)C1COc2cccc(O)c2C1 (configuration not stated) | < 4.00 | 6.40 | 4.00 | 5.70 | – | < 4.00 | 4.00 | 8.40 | – | – | – | – | – | – | – | –
CCCN(CCNC(C)=O)C1COc2cccc(OC)c2C1 (configuration not stated) | 4.22 | 6.22 | < 3.00 | 5.00 | – | < 3.00 | < 3.00 | 7.40 | – | – | – | – | – | – | – | –
CCCN(CCC)C1CCc2cccc(O)c2C1 (configuration not stated) [8-OH-DPAT] | – | 6.10 | 4.52 | 6.00 | ~8.10 | 4.31 | < 3.00 | – | – | – | – | – | – | – | 0.1 | ~8.30
CCCN(CCCCN1C(=O)CC2(CCCC2)CC1=O)C1COc2cccc(OC)c2C1.O=C(O)C(=O)O (single isomer, unassigned; (-)) | 5.22 | 8.00 | 4.70 | 7.70 | 6.61 | 5.30 | 4.70 | 8.70 | ~6.89 | 3 | >2 | 1 | 8 | 32 | – | –
CCCN(CCN1C(=O)CC2(CCCC2)CC1=O)C1COc2cccc(OC)c2C1 (configuration not stated) | < 3.00 | 5.52 | < 3.00 | < 3.00 | – | < 3.00 | < 3.00 | 7.52 | – | – | – | – | – | – | – | –
CCCN(CCC)C1COc2ccc3ccccc3c2C1 (configuration not stated) | 4.52 | 7.00 | 5.70 | 5.00 | – | 5.00 | 4.40 | 4.70 | – | – | – | – | – | – | – | –

Second part, led by results:

pIC50 [1] | pIC50 (D(2) dopamine receptor) | pIC50 [3] | pIC50 [4] | pIC50 [5] | pIC50 [6] | pIC50 (D(1A) dopamine receptor) | pIC50 [9] | pIC50 (Mus musculus [12]) | Structure (SMILES) | DDT msad (Mus musculus [2]) [mg/kg] | DLBT (Mus musculus [7]) [mg/kg] | Punishment test msad (Mus musculus [8]) [mg/kg] | LLR msad (Mus musculus [10]) [mg/kg] | FPT msad (Mus musculus [11]) [mg/kg] | Punishment test msad (Mus musculus [13]) [mg/kg] | pIC50 [14]
5.30 | 8.00 | 5.22 | 5.00 | 7.58 | 6.00 | 4.40 | 9.70 | – | CCCN(CCCCN1C(=O)CC2(CCCC2)CC1=O)C1COc2cccc(OC)c2C1.O=C(O)C(=O)O (stereo in doubt; 9g) | 0.3 | 2 | 0.06 | – | – | – | –
4.70 | 4.22 | 5.30 | 7.00 | – | 5.52 | 4.22 | 9.00 | – | CCCN(CCCCCN1C(=O)CC2(CCCC2)CC1=O)C1COc2cccc(OC)c2C1 (configuration not stated) | – | – | – | – | – | – | –
5.10 | 6.70 | 5.52 | 5.00 | – | 5.00 | 4.52 | 8.70 | – | CCCN(CCCCNS(=O)(=O)c1ccc(C)cc1)C1COc2cccc(OC)c2C1 (stereo in doubt; 15d) | – | – | – | – | – | – | –
5.70 | 7.52 | 5.52 | 6.30 | – | 5.22 | 4.70 | 8.52 | – | CCCN(CCCNS(=O)(=O)c1ccc(C)cc1)C1COc2cccc(OC)c2C1 (configuration not stated) | – | – | – | – | – | – | –
4.30 | 7.70 | 5.30 | 5.00 | – | < 3.00 | 4.00 | 8.70 | – | CCCN(CCCCN1CCCCC1)C1COc2cccc(OC)c2C1 (configuration not stated) | – | – | – | – | – | – | –
< 3.00 | 7.00 | 4.00 | < 3.00 | – | 6.00 | 4.30 | 8.70 | – | CCCN(CCNS(=O)(=O)c1ccc(C)cc1)C1COc2cccc(OC)c2C1 (stereo in doubt; 15b) | – | – | – | – | – | – | –
5.52 | 7.10 | 5.40 | 6.00 | – | 5.10 | 4.40 | 7.00 | – | CCCN(CCCN1C(=O)c2ccccc2C1=O)C1COc2cccc(OC)c2C1 (configuration not stated) | – | – | – | – | – | – | –
